Data reported in US20260206752A1, “MOLECULE HAVING PESTICIDAL UTILITY AND PROCESSES RELATED THERETO” (CORTEVA AGRISCIENCE LLC, priority 2022, published 2026).

Assays:
[1] = system: Meloidogyne incognita; assay: Root knot nematode comparative bioactivity test at 600 g ai/ha, drench on cucumber seedlings; type: in vivo; conditions: 14 days after inoculation, (10−GI)×10
Description: We carried out an experiment to evaluate comparative bioactivity of S1, C1, C2, C3, C4, and C5 against the root knot nematode, Meloidogyne incognita. Each compound was tested at 600 grams of active ingredient per hectare (g ai/ha) and was replicated three times. Cucumber seeds (Cucumis sativus) were planted in a sandy loam soil in 3-inch pots. After six (6) days of planting, the seedlings were treated with the test compounds dissolved in 5% acetone in water by drench application. The plants were inoculated with 4,000 second stage juveniles (J2s) of M. incognita. The inoculated plants were kept in a Greenhouse for 14 days (temperature 27° C.) before evaluating the amount of root damage (galls) called Galling Index (GI) based on a scale of 0-10; where 0=no galls (100% nematode control), and 10=maximum galls (no nematode control). The GI was converted to % nematode control using the formula ((10−GI)×10); where GI=Gall Index. The data were analyzed by Analysis of Variance using JMP (John's Macintosh Project) statistical software and the means were separated using Tukey's HSD (α=0.05).

[2] = system: M. incognita; assay: Residuality test in soil against root knot nematode; type: in vivo, Meloidogyne incognita; conditions: 1250 g ai/ha on bare soil, aged four weeks, then seedlings and 4,000 J2s, evaluated after 14 days
Description: A residuality test was conducted to compare the residual control or persistence of S1, R1, C1, C2, C3, C4, and C5 in soil. Each compound was applied to a bare sandy loam soil (without plant or nematode) in a 3-inch pot at 1250 g ai/ha. The treated soils were kept in a Greenhouse (temperature 27° C.) under regular irrigation for four weeks. At the end of the four weeks, six-day old cucumber (Cucumis sativus) seedlings were transplanted into the treated soil and inoculated with 4,000 second stage juveniles of M. incognita. Each treatment was replicated four times. The inoculated plants were kept in a Greenhouse for 14 days (temperature 27° C.) before evaluating the amount of root damage (galls) called Galling Index (GI) based on a scale of 0-10; where 0=no galls (100% nematode control), and 10=maximum galls (no nematode control). The GI were converted to % control using the formula ((10−GI)×10); where GI=Gall Index. The data were analyzed by Analysis of Variance using JMP (John's Macintosh Project) statistical software and the means were separated using Tukey's HSD (α=0.05).

[3] = system: Meloidogyne incognita; assay: Root Knot Nematode (RKN) test on cucumber seedlings in pots, Galling Index converted to % control, EC by probit analysis; type: in vivo; conditions: RKN EC50
Description: (§1) We conducted an experiment to evaluate comparative bioactivity of S1, R1, and B1 against the root knot nematode (RKN), Meloidogyne incognita. Each of S1, R1, and B1 were tested at six rates: 125, 62.5, 31.25, 15.6, 7.8, 3.9, and 2 ppm. Cucumber seeds (Cucumis sativus) were planted in a sandy loam soil in 3-inch pots. After 6 days of germination, the seedlings were treated with the test compounds dissolved in 5% acetone in water. The treated plants were inoculated with 4,000 second stage juveniles (J2s) of M. incognita. Each experimental unit was replicated three times. The inoculated plants were kept in a Greenhouse for 14 days (about 27° C.) before evaluating the amount of root damage (galls) called Galling Index (GI) based on a scale of 0-10; where 0=no galls (100% control), and 10=maximum galls (no control). The GI was converted to % control using the formula (10−GI)×10; where GI=Gall Index. Effective concentration (EC) values based on the % control of the nematode by S1, R1 and B1 were calculated by probit analysis.

[4] = system: Heterodera glycines second stage juveniles (J2); assay: Soybean Cyst Nematode (SCN) in-vitro mortality test; type: in vivo; conditions: SCN LC50
Description: We carried out an in-vitro experiment to compare activity of S1, R1, and B1 with each other against the soybean cyst nematode (SCN): Heterodera glycines second stage juveniles (J2). Each of S1, R1, and B1 were tested at six rates: 62.5, 15.6, 4, 1, 0.25, and 0 ppm (untreated control, UTC with three replications of each treatment. Equal volume of nematode suspension was added to an equal volume of compound dissolved in 0.5% DMSO (dimethyl sulfoxide) in water. The nematode plus compound was incubated at room temperature (about 25° C.) on a shaker at 95 revolutions per minutes (RPM). Aliquots of 0.5 milliliters (mL) of the nematode suspension were evaluated under a microscope for mortality after 48 hours of incubation. SCN J2s were counted, and the number of dead and active nematodes was used to calculate % SCN mortality which was used to generate lethal concentration (LC) values by probit analysis.

[5] = system: Pratylechus penetrans; assay: Root Lesion Nematode (RLN) in-vitro mortality test; type: in vivo; conditions: RLN LC50
Description: We carried out an in-vitro experiment to compare activity of S1, R1, and B1 with each other against the root lesion nematode (RLN), Pratylechus penetrans. Each of S1, R1, and B1 were tested at six rates: 62.5, 15.6, 4, 1, 0.25, and 0 ppm (UTC) with three replications of each treatment. Equal volume of nematode suspension was added to an equal volume of each of S1, R1, and B1 dissolved in 0.5% DMSO (dimethyl sulfoxide) in water in 25 mL vials. The treated nematode suspension was incubated at room temperature (about 25° C.) on a shaker (95 RPM). Aliquots of 1 mL of the nematode suspension was evaluated under a microscope for mortality after 48 hours. RLN were counted, and the number of dead and active nematodes was used to calculate % mortality from which lethal concentration (LC) values were generated.

[6] = system: root knot nematode, soybean cyst nematode, root lesion nematode; assay: Average of Delta % over the RKN, SCN and RLN tests of Example One; type: in vivo
Description: as §1, with “The GI was converted to % control using the formula (10−GI)×10; where GI=Gall Index.” left out, “analysis. […]” for “analysis.”
We carried out an in-vitro experiment to compare activity of S1, R1, and B1 with each other against the root lesion nematode (RLN), Pratylechus penetrans. […] Aliquots of 1 mL of the nematode suspension was evaluated under a microscope for mortality after 48 hours. RLN were counted, and the number of dead and active nematodes was used to calculate % mortality from which lethal concentration (LC) values were generated.

Row | Compound | Mean Percent Control [1] [%] | Mean Percent Control [2] [%] | Delta % vs B1 [3] [%] | Delta % vs B1 [4] [%] | Delta % vs B1 [5] [%] | Delta % on average, S1 versus B1 [6] [%]
1 | C[C@H](NC(=O)c1ccoc1Cl)C(C)(C)C [Molecule C1] | 54 | 27.5 |  |  |  | 
2 | CCC(CC)[C@H](C)NC(=O)c1ccoc1Cl [Molecule S1, (S)-2-chloro-N-(3-ethylpentan-2-yl)furan-3-carboxamide] |  |  | 240 | 1194 | 259 | 564
